Laboratory results: patent publication US20250368620A1, “ARNT Degrading Compounds and Uses Thereof” (Celgene Corporation, priority 2024, published 2025)

The compounds below were run against T1, ARNT (Homo sapiens, UniProt P27540) (assay: ARNT degradation in a HiBiT system (HEK293 ARNT-HiBiT Knock-In cell line)). Conditions: half-maximal degradation concentration; HEK293 ARNT-HiBiT KI cells, 4h of treatment, luminescence.
T1 construct: an sgRNA targeting the C-terminus of the ARNT gene near the stop codon; endogenous in cells; host or cells: HEK293 ARNT-HiBiT knock-in, homozygous clone
Type: cell-based
Procedure: Compounds of Formula (I) were tested for ARNT degradation in a HiBiT system. A HEK293 ARNT-HiBiT Knock-In cell line was generated using CRISPR/Cas9 technology. Briefly, HEK293 cells were electroporated with the Neon system with an sgRNA targeting the C-terminus of the ARNT gene near the stop codon ([…] (SEQ ID NO: 1); chr 1: 150,812,014-150,812,034) and the HiBiT donor DNA template (80 nucleotides homology arms upstream and downstream of the insert site, with a GSGS (SEQ ID NO: 2) linker). A homozygous clone was selected after Sanger sequencing, and genetic edition was further validated using Nano-Glo HiBiT blotting system. HEK293 ARNT-HiBiT KI cells were cultured in DMEM+10% FBS at 37° C. and 5% CO2. For the assay, cells were seeded at 10,000 cells/well in white 384 plates (Corning #3570) in 22.5 μl of culture medium without phenol red. Test compounds were spotted in 384-well plates by an acoustic dispenser (10 concentrations, semi-log dilution, in 100% DMSO). Before treatment, compounds were diluted 1:100 or 1:1,000 in culture medium without phenol red, and cells were treated with 2.5 μl of diluted compounds 18h after seeding (final top concentration: 3 or 0.3 μM). After 4h of treatment, plates were equilibrated at room temperature for 30 min, and 25 μl of NANO-GLO® HiBiT Lytic reagent were added per well. Luminescence was measured on a plate reader 15 min after incubation with the detection reagent. Data were analyzed using the Genedata Screener Software version 19, and normalization was performed using the DMSO treated wells as Neutral Control and medium only (without cells) wells as Scale Reference. For curve fitting, the smart fit condensing method with a 4-parameters Hill model was used and the half-maximal degradation concentration (DC50) was calculated.

T1 sequence (P27540 whole entry): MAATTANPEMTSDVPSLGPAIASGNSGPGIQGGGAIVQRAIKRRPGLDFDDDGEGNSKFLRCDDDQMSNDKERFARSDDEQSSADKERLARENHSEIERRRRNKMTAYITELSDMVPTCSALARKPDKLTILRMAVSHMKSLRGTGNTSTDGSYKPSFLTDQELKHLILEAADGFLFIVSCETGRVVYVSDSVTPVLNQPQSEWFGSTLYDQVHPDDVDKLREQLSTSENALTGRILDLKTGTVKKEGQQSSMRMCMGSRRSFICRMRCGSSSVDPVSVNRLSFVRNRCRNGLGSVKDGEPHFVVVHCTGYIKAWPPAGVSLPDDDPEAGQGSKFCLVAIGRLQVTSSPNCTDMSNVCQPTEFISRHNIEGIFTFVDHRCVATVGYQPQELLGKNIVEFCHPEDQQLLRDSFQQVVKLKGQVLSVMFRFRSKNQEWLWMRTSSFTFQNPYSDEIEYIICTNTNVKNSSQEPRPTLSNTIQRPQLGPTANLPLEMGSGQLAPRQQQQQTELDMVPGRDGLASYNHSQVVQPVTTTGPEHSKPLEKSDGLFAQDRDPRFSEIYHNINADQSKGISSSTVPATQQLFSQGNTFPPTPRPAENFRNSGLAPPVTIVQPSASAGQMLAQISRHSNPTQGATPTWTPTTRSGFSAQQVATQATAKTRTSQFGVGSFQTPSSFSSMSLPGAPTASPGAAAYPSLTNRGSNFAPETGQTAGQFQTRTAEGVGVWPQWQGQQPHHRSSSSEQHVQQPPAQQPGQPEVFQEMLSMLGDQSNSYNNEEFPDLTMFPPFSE

In order of rising DC50:
1. Cc1ccc2c(c1F)CN(C(=O)c1ccc3c(c1)[C@@H](C)N([C@H]1CCC(=O)NC1=O)C3=O)[C@H]2C [Compound 26, (S)-3-((R)-5-((S)-4-fluoro-1,5-dimethylisoindoline-2-carbonyl)-3-methyl-1-oxoisoindolin-2-yl)piperidine-2,6-dione]  1.7 nM
2. C[C@@H]1c2cc(C(=O)N3Cc4ccc(F)cc4[C@@H]3C)ccc2C(=O)N1[C@H]1CCC(=O)NC1=O [Compound 27, (S)-3-((R)-5-((S)-6-fluoro-1-methylisoindoline-2-carbonyl)-3-methyl-1-oxoisoindolin-2-yl)piperidine-2,6-dione]  1.7 nM
3. COc1ccc2c(c1)CN(C(=O)c1ccc3c(c1)[C@@H](C)N([C@H]1CCC(=O)NC1=O)C3=O)[C@H]2CN(C)C [Compound 28, (S)-3-((R)-5-((R)-1-((dimethylamino)methyl)-5-methoxyisoindoline-2-carbonyl)-3-methyl-1-oxoisoindolin-2-yl)piperidine-2,6-dione]  1.7 nM
4. C[C@@H]1c2c(ccc(C(=O)N3Cc4ccccc4[C@@H]3CN(C)C)c2F)C(=O)N1[C@H]1CCC(=O)NC1=O [Compound 29, (S)-3-((R)-5-((R)-1-((dimethylamino)methyl)isoin-doline-2-carbonyl)-4-fluoro-3-methyl-1-oxoisoindolin-2-yl)piperidine-2,6-dione]  1.8 nM
5. C[C@@H]1c2cc(C(=O)N3Cc4c(ccc(Cl)c4F)[C@@H]3C)ccc2C(=O)N1[C@H]1CCC(=O)NC1=O [Compound 30, (S)-3-((R)-5-((S)-5-chloro-4-fluoro-1-methylisoindoline-2-carbonyl)-3-methyl-1-oxoisoindolin-2-yl)piperidine-2,6-dione]  1.9 nM
6. C[C@@H]1c2cc(C(=O)N3Cc4cc(C(F)(F)F)ccc4[C@@H]3C)ccc2C(=O)N1[C@H]1CCC(=O)NC1=O [Compound 31, (S)-3-((R)-3-methyl-5-((S)-1-methyl-5-(trifluoromethyl)isoindoline-2-carbonyl)-1-oxoisoindolin-2-yl)piperidine-2,6-dione]  2.2 nM
7. C[C@@H]1c2cc(C(=O)N3Cc4c(ccc(C(F)(F)F)c4F)[C@@H]3C)ccc2C(=O)N1[C@H]1CCC(=O)NC1=O [Compound 32, (S)-3-((R)-5-((S)-4-fluoro-1-methyl-5-(trifluoromethyl)isoindoline-2-carbonyl)-3-methyl-1-oxoisoindolin-2-yl)piperidine-2,6-dione]  2.3 nM
8. COc1c(C(=O)N2Cc3c(ccc(Cl)c3F)[C@@H]2C)ccc2c1[C@@H](C)N([C@H]1CCC(=O)NC1=O)C2=O [Compound 33, (S)-3-((R)-5-((S)-5-chloro-4-fluoro-1-methylisoindoline-2-carbonyl)-4-methoxy-3-methyl-1-oxoisoindolin-2-yl)piperidine-2,6-dione]  3 nM
9. C[C@@H]1c2cc(C(=O)N3Cc4c(ccc(C(F)(F)F)c4Cl)[C@@H]3C)ccc2C(=O)N1[C@H]1CCC(=O)NC1=O [Compound 34, (S)-3-((R)-5-((S)-4-chloro-1-methyl-5-(trifluoromethyl)isoindoline-2-carbonyl)-3-methyl-1-oxoisoindolin-2-yl)piperidine-2,6-dione]  3.1 nM
10. COc1c(C(=O)N2Cc3cc(C(F)(F)F)ccc3[C@@H]2C)ccc2c1[C@@H](C)N([C@H]1CCC(=O)NC1=O)C2=O [Compound 35, (S)-3-((R)-4-methoxy-3-methyl-5-((S)-1-methyl-5-(trifluoromethyl)isoindoline-2-carbonyl)-1-oxoisoindolin-2-yl)piperidine-2,6-dione]  3.3 nM
11. C[C@H]1c2ccc(Br)c(F)c2CN1C(=O)c1ccc2c(c1)CN(C1CCC(=O)NC1=O)C2=O (stereo partly drawn) [Compound 36, 3-(5-((S)-5-bromo-4-fluoro-1-methylisoindoline-2-carbonyl)-1-oxoisoindolin-2-yl)piperidine-2,6-dione]  3.4 nM
12. C[C@@H]1c2cc(C(=O)N3Cc4cc(C(F)(F)F)ccc4[C@@H]3C)ccc2C(=O)N1[C@@H]1CCC(=O)NC1=O [Compound 37, (R)-3-((R)-3-methyl-5-((S)-1-methyl-5-(trifluoromethyl)isoindoline-2-carbonyl)-1-oxoisoindolin-2-yl)piperidine-2,6-dione]  6.5 nM
13. C[C@H]1c2ccc(C(F)(F)F)cc2CN1C(=O)c1ccc2c(c1)CN(C1CCC(=O)NC1=O)C2=O (stereo partly drawn) [Compound 38, 3-(5-((S)-1-methyl-5-(trifluoromethyl)isoindoline-2-carbonyl)-1-oxoisoindolin-2-yl)piperidine-2,6-dione]  7.6 nM
